Test [1] relates to ERK. Put plainly: ERK activation in NS20Y neuroblastoma cells, immunoblotting for dually phosphorylated ERK. In kind it is cell-based, mouse. The following applies: for Effect of inhibitor pretreatment on A9-stimulated ERK activation: A9 1 μM, 45 minutes; for ERK activation: dually phosphorylated ERK by immunoblotting. In general terms: A western blot detects proteins with antibodies after separation by electrophoresis.

The next test deals with T1, PKCζ (Homo sapiens, UniProt Q05513).
T1 sequence (Q05513 1-592): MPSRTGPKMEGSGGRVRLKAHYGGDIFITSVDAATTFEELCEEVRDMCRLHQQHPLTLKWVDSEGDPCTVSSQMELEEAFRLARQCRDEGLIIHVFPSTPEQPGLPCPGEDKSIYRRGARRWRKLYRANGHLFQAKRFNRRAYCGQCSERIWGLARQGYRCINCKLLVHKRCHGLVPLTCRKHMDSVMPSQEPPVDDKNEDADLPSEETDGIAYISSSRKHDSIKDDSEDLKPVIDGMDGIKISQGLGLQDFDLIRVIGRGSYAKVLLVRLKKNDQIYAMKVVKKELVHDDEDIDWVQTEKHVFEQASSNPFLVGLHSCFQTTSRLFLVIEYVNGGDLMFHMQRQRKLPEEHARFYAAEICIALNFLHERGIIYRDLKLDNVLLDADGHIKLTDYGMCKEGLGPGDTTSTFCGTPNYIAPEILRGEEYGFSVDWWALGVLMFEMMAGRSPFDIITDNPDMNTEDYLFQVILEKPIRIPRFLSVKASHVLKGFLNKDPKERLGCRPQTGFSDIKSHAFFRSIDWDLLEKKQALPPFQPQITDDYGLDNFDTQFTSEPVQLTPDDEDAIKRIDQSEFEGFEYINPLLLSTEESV
The following applies: read-out: IC50 for activation of PKCζ; cited from earlier work.

The subject of a further test is SH-SY5Y cells. Put plainly: Neurite length in NGF-treated SH-SY5Y neuroblastoma cells. In kind it is cell-based, human. As to the method: Analysis of neurite length in SH-SY5Y neuroblastoma cells: SH-SY5Y neuroblastoma cells develop axonal-like processes on treatment with NGF. For analysis of process length, cells (20 fields/well) are randomly photographed at 96 and 168 hours. Neurite lengths are measured on photographic prints using a Houston Instrument HI-PAD digitizing tablet connected to a computer with appropriate software (Bioquant IV); only processes more than twice the cell body length are measured. Data from identically treated wells are combined. […] Histograms are compared using a Mann-Whitney U test (α=0.05), which makes no assumptions about the shape of the distribution.
As disclosed herein, high and sustained ERK activation induces neurite growth in […] neuroblastoma cells and protects neuronal cells from neurotoxins. To test this, SH-SY5Y human neuroblastoma cells were used, which can be induced into neuron-like phenotype by NGF treatment. This is an established method for measuring neurite growth-promoting activity in vitro in Dr. Gold's lab (Gold et al., Neurosignals. 13:122-129, 2004; Gold et al., Exp. Neurol. 147:269-278, 1997). […] Representative micrographs at 168 hours for vehicle (control), NGF (10 ng/ml), and NGF (10 ng/ml) plus A9 (100 nM) are shown in FIG. 5B.

Test [2] has as its system ERK. The following applies: NS20Y cells; previous study; cited from earlier work.

“Also recorded” adds a separate entry of the source.

Consider `N#CC(C#N)=Cc1cc(O)c(O)c(O)c1` [AG82], for which, in the test with ERK [1], the “Effect of inhibitor pretreatment on A9-stimulated ERK activation” value (“Effect of inhibitor pretreatment” below) is given as “did not prevent the effect of A9” and the ERK activation entry is “did not stimulate ERK”.

As for `N#CC(=Cc1ccc2[nH]ccc2c1)C(N)=C(C#N)C#N` [AG370], in the test on ERK [1], the ERK activation entry is “moderate stimulation of ERK; also recorded: little or no effect”.

`CC(C)(C)c1cc(/C=C(\C#N)C(N)=S)cc(C(C)(C)C)c1O` [AG879]: the ERK stimulation entry in the test with ERK [1] (at 0.1 μM) was “moderate stimulation of ERK”; in the test on ERK [1] (at 1 μM) it was “showed no effect”. In the test on ERK [1], the ERK activation result was “little or no effect”.

As to `Cc1cc2ncc(-c3ccccc3)nc2cc1C` [AG1295], the ERK activation result with ERK [1] is reported as “did not stimulate ERK; also recorded: little or no effect”.

In the case of `CN(C)CCCn1cc(C2=C(c3c[nH]c4ccccc34)C(=O)NC2=O)c2ccccc21` [BisI, bisindolylmaleimide I], the “Effect of inhibitor pretreatment” value with ERK [1] is given as “failed to prevent A9-stimulated ERK activity”. Moreover, the IC50 (as a rule, the concentration that gives 50% inhibition) at PKCζ was 5.8 µM.

With `COc1cccc(-c2cc(=O)c3ccccc3o2)c1N` [PD98059, reference compound], the “Effect of inhibitor pretreatment” value with ERK [1] is reported as “prevented A9 from stimulating ERK activation”. Besides, the “Effect of MEK inhibitor on A9-induced neurite outgrowth” value with SH-SY5Y cells (SH-SY5Y cells) is “did inhibit A9-induced neurite outgrowth”.

For `CC(C)(C)n1nc(-c2ccc(Cl)cc2)c2c(N)ncnc21` [PP2], the “Block of ERK activation induced by quinpirole” value in the test with ERK [2] is recorded as “block ERK activation induced by quinpirole”. Moreover, the “Effect of inhibitor pretreatment” value in the test with ERK [1] is “failed to prevent A9-stimulated ERK activity”.

Take `CN[C@@H]1C[C@H]2O[C@@](C)([C@@H]1OC)n1c3ccccc3c3c4c(c5c6ccccc6n2c5c31)C(=O)NC4` [stauosporine]: in the test with ERK [1], the “Effect of inhibitor pretreatment” value is “prevented A9 from stimulating ERK activation”.

Regarding NGF: nerve growth factor, in the test with SH-SY5Y cells (SH-SY5Y, NGF 10 ng/ml alone), the “Development of axonal-like processes” value is given as “developed long axonal-like processes”.

The values are drawn from patent US20090012179A1, “Use of Tyrphostins to Stimulate Neurite Outgrowth” (priority 2004, published 2009).
